Assay results reported in publication PMC3230598, “Structural Studies of β-Carbonic Anhydrase from the Green Alga Coccomyxa: Inhibitor Complexes with Anions and Acetazolamide” (PLoS ONE, 2011).

Tests used:
[1] = target: T1, Co-CA (Coccomyxa β-CA) (Coccomyxa sp. PA, UniProt Q96554); assay: X-ray crystal structure of co-crystal, […] Å; assay type: binding; conditions: 15 mM NaSCN, 1.8 M NaKPO4 pH 7.2; N bound to active-site zinc (2.0 Å); also at dimer interface
T1 construct: zinc enzyme, homotetramer (dimer of dimers); residues 6-227 modelled

[2] = target: the molecule itself; assay: crystal structure; Co-CA at ~35 mg/ml in 10 mM Tris-HCl pH 7.4, hanging drop at 18°C, 1.6-2.3 M Na,KPO4 pH 7.2, with acetazolamide, phosphate, thiocyanate, azide or iodide; space group P43212; one dimer in the asymmetric unit, tetramer by a crystallographic 2-fold

Molecule: N#CS [SCN, thiocyanate]
- X-ray crystal structure of co-crystal, 2.5 Å [1]: Azide and thiocyanate ions in the active site of Co-CA were clearly defined

B1: β-carbonic anhydrase from Coccomyxa sp. (enzyme, UniProt Q96554 1-227, looked up)
chain: MSAKDTADLSPLLEANRKWADECAAKDSTYFSKVAGSQAPEYLYIGCADSRVSPAQLFNMAPGEVFVQRNVGNLVSNKDLNCMSCLEYTVDHLKIKHILVCGHYNCGACKAGLVWHPKTAGVTNLWISDVREVRDKNAAKLHGLSADDAWDKMVELNVEAQVFNVCASPIVQAAWARGQPLSVHGIVYTPGTGLVKELIKPITGMEDAGALLRADLKQHCFFSESLA
notes: β-carbonic anhydrase of Coccomyxa sp., 227 amino acids, GenBank AAC33484.1; Met-1 to Asp-5 not seen in the electron density, models hold residues 6-227; One zinc ion per monomer; crystallised with acetazolamide, phosphate, thiocyanate, azide or iodide; also called Co-CA; Coccomyxa β-CA; source: E. coli, over-expressed, purified (amylose-resin column, Q-Sepharose Fast Flow)
- stoichiometry N [2]: 4
